Assay results taken from ChEMBL document CHEMBL4680212, “Discovery of T-1101 tosylate as a first-in-class clinical candidate for Hec1/Nek2 inhibition in cancer therapy” (Eur J Med Chem, 2020).

What was measured:
[1] = AUC in CD-1 mouse at 10 mg/kg, po administered as single dose via gavage by LC-MS/MS analysis; format: ADME, organism-based; design: dose 10 mg/kg; settings: in vivo
[2] = Oral bioavailability in CD-1 mouse at 10 mg/kg administered as single dose via gavage by LC-MS/MS analysis; format: ADME, organism-based; settings: in vivo
[3] = Tmax in CD-1 mouse at 10 mg/kg, po administered as single dose via gavage by LC-MS/MS analysis; format: ADME, organism-based; settings: in vivo
[4] = Cmax in CD-1 mouse at 10 mg/kg, po administered as single dose via gavage by LC-MS/MS analysis; format: ADME, organism-based; design: route oral, dose 10 mg/kg; settings: in vivo
[5] = Half life in CD-1 mouse at 10 mg/kg, po administered as single dose via gavage by LC-MS/MS analysis; format: ADME, organism-based; settings: in vivo
[6] = Tmax in Beagle dog at 10 mg/kg, po administered as single dose via gavage by LC-MS/MS analysis; format: ADME, organism-based, Canis lupus familiaris; settings: in vivo
[7] = Cmax in Beagle dog at 10 mg/kg, po administered as single dose via gavage by LC-MS/MS analysis; format: ADME, organism-based, Canis lupus familiaris; design: route oral, dose 10 mg/kg; settings: in vivo
[8] = AUC in Beagle dog at 10 mg/kg, po administered as single dose via gavage by LC-MS/MS analysis; format: ADME, organism-based, Canis lupus familiaris; design: dose 10 mg/kg; settings: in vivo
[9] = Half life in Beagle dog at 10 mg/kg, po administered as single dose via gavage by LC-MS/MS analysis; format: ADME, organism-based, Canis lupus familiaris; settings: in vivo
[10] = Oral bioavailability in Beagle dog at 10 mg/kg administered as single dose via gavage by LC-MS/MS analysis; format: ADME, organism-based, Canis lupus familiaris; settings: in vivo
MDA-MB-231 = test: Antiproliferative activity against human MDA-MB-231 cells measured after 96 hrs by CellTiter 96 Aqueous One Solution Reagent based assay; format: functional, cell-based; settings: MDA-MB-231, 96 h
MDA-MB-468 = test: Antiproliferative activity against human MDA-MB-468 cells measured after 96 hrs by CellTiter 96 Aqueous One Solution Reagent based assay; format: functional, cell-based; settings: MDA-MB-468, 96 h
K562 [11] = test: Antiproliferative activity against human K562 cells measured after 96 hrs by CellTiter 96 Aqueous One Solution Reagent based assay; format: functional, cell-based; settings: K562, 96 h
HeLa = test: Antiproliferative activity against human HeLa cells measured after 96 hrs by CellTiter 96 Aqueous One Solution Reagent based assay; format: functional, cell-based
K562 [12] = test: Antiproliferative activity against human K562 cells measured after 96 hrs by MTT assay; format: functional, cell-based; settings: K562, 96 h

Work on `COCCOc1cnc(Sc2cc(C)c(-c3csc(NC(=O)c4ccncc4)n3)c(C)c2)cn1.Cc1ccc(S(=O)(=O)O)cc1` yielded an AUC [1] of 62.5 µM·h, a bioavailability [2] of 77.4% and a Tmax [3] of 1 h. It also gave a Cmax [4] of 8.13 µM, a half-life [5] of 2.81 h and a Tmax [6] of 1 h. For the same compound, the Cmax [7] was 0.98 µM, the AUC [8] was 8.61 µM·h and the half-life [9] was 4.53 h. For the same compound, the bioavailability [10] was 24.9%.
Work on `COCCOc1cnc(Sc2cc(C)c(-c3csc(NC(=O)c4ccncc4)n3)c(C)c2)cn1.CS(=O)(=O)O` yielded an AUC [1] of 47.5 µM·h, a bioavailability [2] of 58.5% and a Tmax [3] of 1.5 h. The Cmax [4] was 8.44 µM and the half-life [5] was 3.38 h.
`Cc1cc(Sc2cnc(OCCN(C)C)cn2)cc(C)c1-c1csc(NC(=O)c2ccncc2)n1` showed an IC50 (MDA-MB-231) of 94.5 nM, an IC50 (MDA-MB-468) of 53.9 nM and an IC50 (K562 [11]) of 59.2 nM. The IC50 (HeLa) was 32.8 nM and the AUC [1] was 13.9 µM·h.
Work on `Cc1cc(C)c(-c2csc(NC(=O)/C=C/c3ccc(C(C)(C)C)cc3)n2)c(C)c1` yielded an IC50 (K562 [12]) of 790 nM.
